The subject of the test is Salmonella Typhimurium strain TA98. In kind it is cell-based.

This is an account of results in US7695751B2 (priority 2004, dated 2010).

Where “and” joins values, the source holds several entries; their conditions need not be identical. Identical values can stand only once.

With Aflatoxin B1 [AFB1 control], the MR was 13.75 and 12.35; the “Number of mutant colonies/plate” value is 383 ± 65 colonies/plate; the “The number of mutant colonies/plate” value was 385 ± 97 colonies/plate.
